Here are results for one compound from patent publication WO2020032435A1 (priority 2018, dated 2019).

For one assay, the system named is cAMP. Put plainly: cAMP concentration in human dermal papilla cells, ELISA. The class given is cell-based. Particulars: Human dermal papilla cell, 24 hours, DMSO negative control, read-out: increase in cAMP concentration. Background: ELISA stands for enzyme-linked immunosorbent assay.
Assay [1] relates to VEGF. Kind of assay: VEGF mRNA expression in human dermal papilla cells, RT-PCR. The class given is cell-based. The settings on record: Human dermal papilla cell, 24 hours, read-out: increase in mRNA expression of VEGF.
The next assay deals with cycD. Kind of assay: Cyclin D mRNA expression in human dermal papilla cells, RT-PCR. The class given is cell-based. Particulars: Human dermal papilla cell, 24 hours, read-out: increase in mRNA expression of cycD.
Assay [2] deals with human dermal papilla cells. Put plainly: Cell proliferation of human dermal papilla cells, MTT assay. The settings on record: 24 h, read-out: proliferation rate increase. (Formazan colour is commonly taken as a measure of viable cells.)
A further assay has as its system IGF. Put plainly: IGF-1 mRNA expression in human dermal papilla cells, RT-PCR. The settings on record: Human dermal papilla cell, 24 hours, read-out: increase in mRNA expression of IGF. The class given is cell-based.
The test system of assay [3] is VEGF. Put plainly: VEGF concentration in culture medium of human dermal papilla cells, ELISA. The class given is cell-based. The settings on record: Human dermal papilla cell, 24 hours, DMSO negative control, read-out: increase in VEGF concentration.
The subject of a further assay is LEF. Put plainly: LEF mRNA expression in human dermal papilla cells, RT-PCR. The class given is cell-based. Particulars: Human dermal papilla cell, 24 hours, read-out: increase in mRNA expression of LEF.
A further assay has as its system IGF-1. Put plainly: IGF-1 concentration in culture medium of human dermal papilla cells, ELISA. The class given is cell-based. The settings on record: Human dermal papilla cell, 24 hours, DMSO negative control, read-out: increase in IGF-1 concentration.

On to `COc1ccc2ccccc2c1` [Yarayara, 2-methoxynaphthalene], for which the activation at 20 µM in the assay on cAMP came to 47%; in the assay with VEGF [1], 274%; with cycD, 262%; in assay [2] it was 37%; in the assay on IGF, 270%; with VEGF [3] it was 30%. Besides, the values for the activation at 20 µM in the assay with LEF and with IGF-1 were 340% and 22%, respectively. The activation at 10 µM in assay [2] stood at 10.6%. For the same compound, the activation at 50 µM in assay [2] stood at 28%.
